Entries after “also recorded” stand apart in the source; their conditions may differ.

The conditions of data set [1]: controlled studies; cited from earlier work.
For data set [2] the following is noted: administered IP or IV; cited from earlier work.
For data set [3] the following is noted: in vivo; cited from earlier work.
Data set [4] is described as follows: Example 1: tolerability study of mirtazapine and betahistine. In kind it is in vivo, normal, health subjects. The conditions noted are these: 6 weeks of therapy, healthy subjects. On the procedure:
The subjects receive 2 capsules per day, one in the morning and one at bedtime. […] In a different dosage range, the subjects receive 3 capsules per day, one in the morning, one at noon and one at bedtime. […] In a different dosage range, the subjects receive 2 capsules per day, one in the morning and one at bedtime. […] All medications are administered in an over-encapsulated format that ensures blinding of study participants, staff and investigators. All subjects are scheduled to receive a total of 6 weeks of therapy, and are required to return to the clinics after 1, 2, 4 and 6 weeks of therapy. Patients are required to complete paper self-assessments, electronic diary assessments, computer based cognitive testing, as well as vital signs and weight assessments at the clinic visits.

A further data set deals with reuptake of 5HT (Homo sapiens, UniProt P31645). Particulars: cited from earlier work.
Data set [5] has as its target 5HT2A serotonin receptors (Homo sapiens, UniProt P28223). Particulars: cited from earlier work.
In another data set the target is histamine H1 receptors (Homo sapiens, UniProt P35367). The conditions noted are these: cited from earlier work.
The next data set has as its target reuptake of dopamine (Homo sapiens, UniProt Q01959). Particulars: cited from earlier work.
In another data set the test system is alpha-2 receptors. Particulars: cited from earlier work.
For the next data set, the target named is 5HT1B receptors (Homo sapiens, UniProt P28222). Particulars: cited from earlier work.
The next data set has as its target T1, 5HT1A receptors (Homo sapiens, UniProt P08908).
T1 sequence (P08908 1-422): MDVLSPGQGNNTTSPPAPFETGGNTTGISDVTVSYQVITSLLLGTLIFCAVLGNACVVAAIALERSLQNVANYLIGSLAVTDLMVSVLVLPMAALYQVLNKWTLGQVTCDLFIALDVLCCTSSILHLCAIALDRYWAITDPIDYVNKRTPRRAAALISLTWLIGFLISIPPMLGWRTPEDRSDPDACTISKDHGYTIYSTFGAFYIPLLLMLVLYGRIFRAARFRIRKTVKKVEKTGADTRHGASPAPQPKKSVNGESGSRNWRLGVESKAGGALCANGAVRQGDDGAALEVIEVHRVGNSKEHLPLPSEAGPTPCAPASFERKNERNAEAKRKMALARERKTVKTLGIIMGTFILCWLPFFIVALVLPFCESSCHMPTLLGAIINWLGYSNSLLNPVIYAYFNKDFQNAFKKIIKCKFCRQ
The conditions noted are these: cited from earlier work.

In data set [6] the target is T2, 5HT2C serotonin receptors (Homo sapiens, UniProt P28335).
T2 sequence (P28335 33-458): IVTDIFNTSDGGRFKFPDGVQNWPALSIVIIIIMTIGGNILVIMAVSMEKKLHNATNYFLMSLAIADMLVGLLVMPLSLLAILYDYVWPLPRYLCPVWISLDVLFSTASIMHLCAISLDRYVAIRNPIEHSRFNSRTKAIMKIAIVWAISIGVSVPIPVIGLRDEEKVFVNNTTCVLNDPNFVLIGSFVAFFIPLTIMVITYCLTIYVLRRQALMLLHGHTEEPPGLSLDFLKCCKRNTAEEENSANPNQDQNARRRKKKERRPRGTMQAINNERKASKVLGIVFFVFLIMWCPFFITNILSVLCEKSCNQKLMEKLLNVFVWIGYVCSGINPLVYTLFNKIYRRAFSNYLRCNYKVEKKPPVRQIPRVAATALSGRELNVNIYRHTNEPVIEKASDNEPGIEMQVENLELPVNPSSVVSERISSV
Particulars: cited from earlier work.

The next data set deals with T3, 5HT3 serotonin receptors (Homo sapiens, UniProt P46098).
T3 sequence (P46098 24-478): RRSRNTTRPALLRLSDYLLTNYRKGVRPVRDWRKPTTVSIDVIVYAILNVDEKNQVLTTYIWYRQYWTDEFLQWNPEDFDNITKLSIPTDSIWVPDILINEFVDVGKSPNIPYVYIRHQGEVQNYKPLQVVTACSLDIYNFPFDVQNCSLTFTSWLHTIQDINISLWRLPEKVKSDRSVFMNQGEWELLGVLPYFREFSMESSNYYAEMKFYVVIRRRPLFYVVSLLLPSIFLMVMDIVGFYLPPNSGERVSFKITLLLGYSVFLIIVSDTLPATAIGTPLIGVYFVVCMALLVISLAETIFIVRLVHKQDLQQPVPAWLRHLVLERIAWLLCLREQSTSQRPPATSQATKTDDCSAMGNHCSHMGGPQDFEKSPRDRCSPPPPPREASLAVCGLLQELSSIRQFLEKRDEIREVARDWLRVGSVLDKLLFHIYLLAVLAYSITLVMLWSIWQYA
Particulars: cited from earlier work.

Another data set deals with 5HT2 receptors. Particulars: cited from earlier work.
Data set [7] has as its system alpha-1 adrenergic receptors. Particulars: cited from earlier work.
In a further data set the target is norepinephrine reuptake (Homo sapiens, UniProt P23975). Particulars: cited from earlier work.
Data set [8] concerns muscarinic cholinergic receptors. Particulars: cited from earlier work.

Chain of reuptake of 5HT (P31645 whole entry): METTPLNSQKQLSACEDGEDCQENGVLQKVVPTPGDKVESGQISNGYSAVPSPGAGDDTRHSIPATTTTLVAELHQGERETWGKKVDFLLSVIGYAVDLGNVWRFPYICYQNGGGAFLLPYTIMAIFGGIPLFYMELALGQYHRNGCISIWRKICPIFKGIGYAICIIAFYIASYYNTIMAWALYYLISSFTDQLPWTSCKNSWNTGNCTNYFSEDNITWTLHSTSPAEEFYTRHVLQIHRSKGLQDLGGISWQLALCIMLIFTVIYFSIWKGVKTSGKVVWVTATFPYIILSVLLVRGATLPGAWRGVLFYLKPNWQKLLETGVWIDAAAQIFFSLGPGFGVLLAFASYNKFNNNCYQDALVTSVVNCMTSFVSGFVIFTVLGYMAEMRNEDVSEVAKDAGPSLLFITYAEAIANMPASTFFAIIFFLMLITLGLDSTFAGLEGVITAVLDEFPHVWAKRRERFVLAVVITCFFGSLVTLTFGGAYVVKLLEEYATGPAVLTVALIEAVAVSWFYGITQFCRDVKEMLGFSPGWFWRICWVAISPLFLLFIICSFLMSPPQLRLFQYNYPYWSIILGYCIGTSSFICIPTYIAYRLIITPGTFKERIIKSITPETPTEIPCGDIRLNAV
Chain of norepinephrine reuptake (P23975 whole entry): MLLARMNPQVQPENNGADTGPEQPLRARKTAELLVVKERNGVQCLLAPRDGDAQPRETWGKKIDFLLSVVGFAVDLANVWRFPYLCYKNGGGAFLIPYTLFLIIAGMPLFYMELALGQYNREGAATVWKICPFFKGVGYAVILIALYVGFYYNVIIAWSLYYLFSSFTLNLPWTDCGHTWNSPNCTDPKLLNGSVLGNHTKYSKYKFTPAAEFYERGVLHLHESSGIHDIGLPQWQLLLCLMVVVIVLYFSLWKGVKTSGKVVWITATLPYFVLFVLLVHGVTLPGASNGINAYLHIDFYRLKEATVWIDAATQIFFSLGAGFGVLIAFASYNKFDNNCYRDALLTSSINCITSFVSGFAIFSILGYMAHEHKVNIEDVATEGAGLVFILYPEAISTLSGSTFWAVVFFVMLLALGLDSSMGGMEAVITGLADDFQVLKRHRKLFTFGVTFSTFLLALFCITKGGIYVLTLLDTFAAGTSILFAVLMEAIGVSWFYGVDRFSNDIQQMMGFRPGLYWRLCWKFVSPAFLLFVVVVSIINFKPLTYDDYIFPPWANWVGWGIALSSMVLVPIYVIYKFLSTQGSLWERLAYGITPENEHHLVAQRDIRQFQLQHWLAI
Chain of histamine H1 receptors (P35367 whole entry): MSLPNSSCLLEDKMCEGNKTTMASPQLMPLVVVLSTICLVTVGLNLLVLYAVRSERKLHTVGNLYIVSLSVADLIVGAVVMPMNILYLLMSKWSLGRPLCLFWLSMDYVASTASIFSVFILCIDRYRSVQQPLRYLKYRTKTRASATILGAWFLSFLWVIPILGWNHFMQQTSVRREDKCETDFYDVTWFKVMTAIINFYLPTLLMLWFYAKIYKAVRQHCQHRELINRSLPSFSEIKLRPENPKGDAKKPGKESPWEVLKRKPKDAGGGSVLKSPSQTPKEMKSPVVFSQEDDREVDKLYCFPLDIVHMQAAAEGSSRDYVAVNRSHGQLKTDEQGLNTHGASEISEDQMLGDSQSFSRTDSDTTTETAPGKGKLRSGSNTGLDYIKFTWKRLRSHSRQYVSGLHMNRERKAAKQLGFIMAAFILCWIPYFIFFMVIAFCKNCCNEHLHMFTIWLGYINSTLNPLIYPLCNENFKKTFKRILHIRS
Chain of 5HT2A serotonin receptors (P28223 whole entry): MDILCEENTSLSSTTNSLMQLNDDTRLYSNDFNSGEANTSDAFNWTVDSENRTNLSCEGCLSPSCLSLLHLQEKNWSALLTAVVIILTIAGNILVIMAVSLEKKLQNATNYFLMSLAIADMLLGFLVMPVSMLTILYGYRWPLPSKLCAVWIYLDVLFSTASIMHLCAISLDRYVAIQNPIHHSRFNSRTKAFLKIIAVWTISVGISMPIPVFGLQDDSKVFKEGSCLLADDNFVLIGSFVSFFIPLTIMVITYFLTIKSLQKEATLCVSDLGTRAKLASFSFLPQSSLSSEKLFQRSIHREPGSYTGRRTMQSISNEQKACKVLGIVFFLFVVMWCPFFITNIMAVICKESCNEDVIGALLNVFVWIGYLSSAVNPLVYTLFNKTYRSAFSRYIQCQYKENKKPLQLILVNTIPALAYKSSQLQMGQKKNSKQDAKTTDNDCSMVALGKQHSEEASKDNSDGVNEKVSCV
Chain of 5HT1B receptors (P28222 whole entry): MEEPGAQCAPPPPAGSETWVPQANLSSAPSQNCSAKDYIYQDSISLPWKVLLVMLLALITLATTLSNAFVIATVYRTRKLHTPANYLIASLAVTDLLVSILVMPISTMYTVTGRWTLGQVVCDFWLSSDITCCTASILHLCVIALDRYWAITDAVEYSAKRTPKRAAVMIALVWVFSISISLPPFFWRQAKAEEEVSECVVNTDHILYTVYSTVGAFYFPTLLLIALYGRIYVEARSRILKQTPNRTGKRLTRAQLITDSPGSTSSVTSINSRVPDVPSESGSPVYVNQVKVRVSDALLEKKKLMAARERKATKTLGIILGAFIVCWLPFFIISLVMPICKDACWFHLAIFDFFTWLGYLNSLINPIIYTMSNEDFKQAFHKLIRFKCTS
Chain of reuptake of dopamine (Q01959 whole entry): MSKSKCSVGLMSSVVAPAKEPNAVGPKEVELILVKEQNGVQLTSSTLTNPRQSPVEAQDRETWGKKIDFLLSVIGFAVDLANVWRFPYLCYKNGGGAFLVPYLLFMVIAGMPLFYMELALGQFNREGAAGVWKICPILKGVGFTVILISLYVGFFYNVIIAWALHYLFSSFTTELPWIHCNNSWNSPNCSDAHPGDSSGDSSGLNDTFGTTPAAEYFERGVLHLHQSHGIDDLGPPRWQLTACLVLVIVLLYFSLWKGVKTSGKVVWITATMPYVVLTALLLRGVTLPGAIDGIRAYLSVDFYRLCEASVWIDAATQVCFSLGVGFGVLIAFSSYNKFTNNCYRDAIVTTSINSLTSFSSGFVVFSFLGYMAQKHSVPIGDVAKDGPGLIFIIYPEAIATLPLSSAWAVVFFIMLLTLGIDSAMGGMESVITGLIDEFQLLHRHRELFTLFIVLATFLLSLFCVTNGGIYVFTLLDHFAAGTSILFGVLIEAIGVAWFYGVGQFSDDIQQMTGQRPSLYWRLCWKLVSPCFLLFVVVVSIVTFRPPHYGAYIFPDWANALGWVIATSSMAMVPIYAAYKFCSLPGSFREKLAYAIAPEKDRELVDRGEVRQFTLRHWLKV

For the compound `CN(C)CCC=C1c2ccccc2CCc2ccccc21` [amitriptyline], in [1], the “appetite increase reported, share of patients” value is on record as 6% and the “weight gain of greater than or equal to 7% of body weight, share of patients” value is 5.9%.
Turning to `CNCCc1ccccn1` [betahistine, 2-[2-(methylamino)ethyl]pyridine], in [2], the food intake entry is reported as “marginally inhibit food intake” and the satiety signaling result was “increase the satiety signaling”. Moreover, in data set [3], the blood-brain barrier passage entry was “crosses the blood-brain barrier”. For the same compound, the side effects entry in [4] was “causes insomnia, nausea/vomiting, and weight loss”.
Consider `CN1CCN2c3ncccc3Cc3ccccc3C2C1` (centres unmarked) [mirtazapine, 1,2,3,4,10,14b-hexahydro-2-methylpyrazino[2,1-a]pyrido[2,3-c]benzazepine], for which, on reuptake of 5HT, the “effect on the reuptake of 5HT” value was “no effect”. In data set [5], the “antagonist activity at 5HT2A serotonin receptors” value is listed as “potent antagonist”. Also, the “antagonist activity at histamine H1 receptors” value on histamine H1 receptors is “potent antagonist”. At reuptake of dopamine, the “effect on the reuptake of dopamine” value is recorded as “no effect”. The “antagonist activity at central alpha-2 receptors” value in the data set on alpha-2 receptors is reported as “potent antagonist”. Besides, the “affinity for the 5HT1B receptors” value at 5HT1B receptors is reported as “lacks significant affinity”. The side effects result in [4] was “does cause weight gain, sedation, and cognitive deficits”. In addition, the “affinity for the 5HT1A receptors” value on 5HT1A receptors was “lacks significant affinity”. The “antagonist activity at 5HT2C serotonin receptors” value in data set [6] was “potent antagonist”. Further, the “antagonist activity at 5HT3 serotonin receptors” value at 5HT3 serotonin receptors was “potent antagonist”. Further, the “antagonist activity at 5HT2 receptors” value in the data set on 5HT2 receptors is given as “potent antagonist”. Also, the “antagonist activity at alpha-1 adrenergic receptors” value in data set [7] is recorded as “moderate; also recorded: weak antagonist”. In addition, the “inhibition of norepinephrine reuptake” value on norepinephrine reuptake is recorded as “very weak inhibitor”. For the same compound, the “antagonist activity at muscarinic cholinergic receptors” value in data set [8] is reported as “moderate antagonist; also recorded: weak antagonist”.

(Values after US20100204205A1 (priority 2007, published 2010).)
